What was measured:
[1] = tested on: lung epithelial cells; conditions: Boucher et al. 1995, Gheber et al. 1995; cited from earlier work
[2] = tested on: lung epithelial cells of cystic fibrosis patients; conditions: U.S. Pat. No. 5,292,498; cited from earlier work
[3] = tested on: otitis media; assay: Treatment of otitis media in children (Example 1); type: in vivo, human; conditions: children with otitis media; nasal drops or nasal spray twice daily, 10^-7 to 10^-2 moles/liter, with antibiotic therapy
Procedure: Uridine 5′-triphosphate (UTP) is administered to children diagnosed with otitis media (OM). UTP is administered via nasal drops or nasal spray, twice daily, for a total of 5-10 days. The concentration of UTP is in the range of 10^−7 to 10^−2 moles/liter. Treatment with UTP begins as soon as OM is diagnosed and antibiotic therapy is initiated. The length of treatment for each patient is up to one month (28 days); the preferable length of treatment is one week (7 days). Effectiveness of UTP in eliminating middle ear fluid is assessed by several methods including: pneumatic otoscopy (to diagnose fluid in the middle ear and to evaluate the status of eardrum); tympanometry (to evaluate compliance of tympanic membrane/eardrum and to estimate middle ear pressure); acoustic reflectometry (to diagnose presence of air or fluid in the middle ear); and hearing evaluation tests.

SMILES	ciliary beat frequency [1]	chloride and water secretion [2]	number of days that middle ear fluid is present [3]	number of days that symptoms such as pain or hearing impairment are experienced [3]
Nc1ncnc2c1ncn2[C@@H]1O[C@H](COP(=O)(O)OP(=O)(O)OP(=O)(O)O)[C@@H](O)[C@H]1O [ATP, adenosine 5′-triphosphate]	stimulate the ciliary beat frequency	induce chloride and water secretion		
O=c1ccn([C@@H]2O[C@H](COP(=O)(O)OP(=O)(O)OP(=O)(O)O)[C@@H](O)[C@H]2O)c(=O)[nH]1 [UTP, uridine 5′-triphosphate]	stimulate the ciliary beat frequency	induce chloride and water secretion	decrease in the number of days that middle ear fluid is present	decrease in the number of days that symptoms such as pain or hearing impairment are experienced
